The source made the active and inactive calls.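 Rule for the calls: active = compounds giving half or more protection of infected cells from virus-caused growth loss, again on retest; inactive = the rest.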
System: CEM cells HIV-1 protection, formazan growth assay
Experiment: NCI AIDS Antiviral Assay
Conditions: for IC50: measured here: growth of uninfected CEM cells
Outline: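 Five concentrations of each compound were applied to infected and uninfected human CEM cells. Protection from HIV-1 was judged from growth measured with a soluble formazan assay.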

Row | SMILES | EC50 [µM] | IC50 [µM] | outcome
1 | CCC[C@H]1[C@H](CCC)[C@@]2(OC(=O)C3=C2CCC=C3)[C@]12OC(=O)C1=C2CCC=C1 | > 107 | 20 | 
2 | CCCCCCCCCCCCN1C(=O)c2ccccc2[Se]1=O (configuration not stated) | > 2.75 | > 2.75 | 
3 | CC1=Nn2c(nnc2-c2ccc(Cl)cc2)NC(C)(C)C1 | > 61.7 | > 61.7 | 
4 | Cc1c2ccn(O)cc2c(C)c2c1nc1ccccc12 | > 200 | 1.82 | 
5 | C=C1SC(=Nc2ccccc2Cl)N(C(=O)c2sc3ccccc3c2Cl)C1(C)C | > 25.1 | 11.5 | 
6 | CC1(Nc2ccccc2)OC(=O)c2ccccc21 (configuration not stated) | > 200 | > 200 | 
7 | O=S1c2ccccc2N=C(c2ccc3ccccc3c2)CC1C1=CC=CCC1 (configuration not stated) | > 18.6 | > 18.6 | 
8 | Cc1nc2c(=S)nc[nH]c2n1Nc1ccccc1 | > 200 | 72.4 | 
9 | O=C(Cc1ccccc1)NN1C(=O)/C(=C\c2ccc(O)cc2)SC1=Nc1ccccc1 | > 31.6 | > 31.6 | 
10 | CC(=O)OC12c3ccccc3-c3ccccc3C1C1C(=O)OC(=O)C12 (configuration not stated) | > 282 | > 282 | 
11 | CC/C(=C/OC)P1(=O)OC(C)(C)CN1C(C)(C)C (configuration not stated) | > 200 | 151 | 
12 | CC(NCCCCCCNC(C)C(=O)O)C(=O)O (configuration not stated) | > 589 | > 589 | 
13 | CCCc1cc(=O)oc2c3c(c4c(c12)OC(C)(C)[C@@H](O)[C@@H]4O)O[C@@H](C)[C@H](C)[C@@H]3O | > 200 | 89.1 | 
14 | COC(=O)CC1c2ccccc2N2C(=O)Cc3c([nH]c4ccccc34)C12 (configuration not stated) | > 200 | 191 | 
15 | CCOC(=O)/C(C#N)=C/c1ccc(SCc2ccco2)c([N+](=O)[O-])c1 | > 200 | > 200 | 
16 | Cc1ccccc1N1C(=O)[N+](C)(C)N=C1[O-] | > 1150 | > 1150 | 
17 | CCCCCCCCCCCCNC(=S)OC |  |  | inactive
18 | Fc1nc(-c2c3ccccc3c3sc4ccccc4n23)nc(N2CCOCCOCCOCCOCC2)n1 | > 200 | 51.3 | 
19 | COC(=O)C(Cc1nc2ccc(Cl)cc2[nH]c1=O)/C(=N/O)C(=O)Nc1cccc(Cl)c1C (configuration not stated) | > 105 | > 105 | 
20 | Cc1[nH]n(C(=N)N)c(=O)c1CCO | > 200 | > 200 | 
21 | CC1CCC2CC(=O)NC(=O)CC12 (configuration not stated) | > 457 | > 457 | 
22 | O=c1cc(N2CCOCC2)n2ccccc2n1 | > 200 | > 200 | 

Row | SMILES | EC50 [µM] | IC50 [µM] | outcome
23 | Nc1c(-c2cccc3ccccc23)c2ccc([N+](=O)[O-])cc2c(=O)n1-c1nc2ccccc2s1 | > 50.1 | 0.676 | 
24 | Cc1sc2nc3n(c(=O)c2c1C)N=CN(c1ccc(Cl)cc1)C3 | 9.33 | 50.1 | 
25 | Cc1c(C)c(C)c2c(c1C)C/C2=N/O | > 100 | > 100 | 
26 | COc1cc2nncc(Sc3cnnc4ccccc34)c2cc1OC | > 61.7 | 7.59 | 
27 | CC(=O)O[C@]12CCCC1C1(O)C(O)CCCC12 (some centres not stated) | > 200 | > 200 | 
28 | O=C(C(=O)c1ccc(Cc2ccc(C(=O)C(=O)c3ccccc3)cc2)cc1)c1ccccc1 | > 575 | > 575 | 
29 | c1ccc2c(c1)Nc1nc3nonc3nc1N2 | > 200 | > 200 | 
30 | CC1=Nc2cc(N)nn2C(=O)C1 | > 200 | > 200 | 
31 | O=c1ccn(C2OC(CO)CC2F)c(=O)[nH]1 (configuration not stated) | > 676 | > 676 | 
32 | CC(=O)OCC12CC(CC1OC(C)=O)c1ccccc12 (configuration not stated) | > 251 | > 251 | 
33 | COc1ccc(N(CN2C(=O)CCC2OC)C(C)=O)cc1 (configuration not stated) |  |  | inactive
34 | N#C/C(=C\c1cccc(C#N)c1)C(=O)O | > 50.1 | > 50.1 | 
35 | CN1CCN(/C(N)=C(\C#N)C(=O)Nc2ccccc2)CC1 | > 200 | > 200 | 
36 | Cc1occc1C(=S)Nc1ccc(Cl)c(C(=O)OCC(C)C)c1 | 0.0123 | 18.6 | 
37 | COc1ccc(C(=O)C(C(=O)CCC(=O)Nc2ccc(C)c(C)c2)c2ccc(OC)cc2)cc1 (configuration not stated) | > 21.9 | > 21.9 | 
38 | CCOC(=O)c1nc(SC)sc1NC(=O)c1ccccc1N | > 200 | > 200 | 
39 | NC(N)=NS(=O)(=O)c1ccc(N=c2c3ccccc3n(-c3ccccc3)c3ccccc23)cc1 |  |  | inactive
40 | O=C(C=Nc1ccccc1C(=O)[O-])c1ccco1.O=C(C=Nc1ccccc1C(=O)[O-])c1ccco1.[Co+2] | > 1.38 | > 1.38 | 
41 | Cc1ccc(C)c2c1C1CCCCC3(OCCCO3)C21O (configuration not stated) | > 200 | > 200 | 
42 | COc1ccc(N=C/C=C/Nc2ccc(OC)cc2)cc1 | > 200 | 7.41 | 
43 | O=[N+]([O-])c1ccc(/C=C/c2ccc(/C=C/c3ccc([N+](=O)[O-])cc3[N+](=O)[O-])cc2)c([N+](=O)[O-])c1 |  |  | inactive
44 | Cc1cn(C2CC(N=[N+]=[N-])C(COC(=O)CCCCCCCCCCBr)O2)c(=O)[nH]c1=O (configuration not stated) |  | 110 | active

Row | SMILES | EC50 [µM] | IC50 [µM] | outcome
45 | NCCSSc1ccccc1[N+](=O)[O-] | > 200 | 11.2 | 
46 | CO[C@]12CCC(=O)N1C=Cc1c2[nH]c2ccccc12 |  |  | inactive
47 | Cn1cc(NC(=O)c2cc(NC(=O)c3cc(NC(=O)c4ccc(C(=O)Nc5cn(C)c(C(=O)Nc6cn(C)c(C(=O)Nc7cn(C)c(C(=O)NCCC(=N)N)n7)n6)n5)cc4)cn3C)cn2C)cc1C(=O)NCCC(=N)N | > 33.1 | 6.61 | 
48 | c1ccc(N=C(N2CCCC2)N(CCN2CCCC2)c2ccccc2)cc1 | > 200 | 9.33 | 
49 | CC(C)CCC[C@@H](C)C1CCC2[C@@H]3CCC4C[C@@H](NS(C)(=O)=O)CC[C@]4(C)C3CC[C@@]21C (some centres not stated) | > 200 | > 200 | 
50 | O=c1[nH]c(=O)n(C2CC(O)C(CO)O2)cc1OCCCc1ccccc1 (configuration not stated) | > 200 | > 200 | 
51 | Cc1c(Cl)ccc2c1NC(=O)C2(O)CC(=O)c1ccc(Cl)cc1Cl (configuration not stated) | > 0.708 | > 0.708 | 
52 | O=C1C=C(c2ccccc2)Sc2ccccc2N1 | > 89.1 | 47.9 | 
53 | OC(NN=C1CCCC1)(C(F)(F)Cl)C(F)(F)Cl | > 200 | 170 | 
54 | CC1=C(C(=O)Nc2ccccc2C)C(c2ccc(C3C(C(=O)Nc4ccccc4C)=CNC=C3C(=O)Nc3ccccc3C)cc2)C(C(=O)Nc2ccccc2C)=C(C)N1 |  |  | inactive
55 | C(=N\NC1=NCCN1)/c1ccc2ccccc2c1 | > 200 | 22.9 | 
56 | COC(=O)c1cc([O-])c2sc(C)c(C)[n+]2n1 | > 1050 | 724 | 
57 | O=C(/C=C/c1ccccc1)CC(=O)CCC(=O)Nc1ccc(Cl)cc1 |  |  | inactive
58 | COC(=O)c1ccccc1C1CN=NC12Cc1cc(C)c(C)cc1C2=O (configuration not stated) | > 138 | > 138 | 
59 | COc1cc(CC2COC(=O)[C@@H]2Cc2ccc(O)c(OC)c2)ccc1O (some centres not stated) | > 200 | 95.5 | 
60 | CCCCCCC(=O)c1c(O)c2ccccc2oc1=O | > 200 | 29.5 | 
61 | COc1cc2c(cc1OC)CC(=O)c1cc(OC)c(OC)cc1/C=C\2 | > 12.6 | 7.59 | 
62 | C[N+]1(CCC(C(N)=O)(c2ccccc2)c2ccccc2)CCCC12CCCCC2 (configuration not stated) |  |  | inactive
63 | CC12CC(OC1=O)C(=O)c1ccccc12 (configuration not stated) | > 468 | 209 | 
64 | CN(CCO)c1nc(N)cc(=O)[nH]1 | > 1350 | > 1350 | 
65 | CC(=O)/C(=C/n1ccc(=O)[nH]c1=S)C(=O)Nc1ccccc1C | > 200 | > 200 | 

From PubChem BioAssay AID179 (DTP/NCI, 2004)
